Where a name gives a salt, the structure may show the parent alone.
target: T1, human neurokinin-1-receptor (NK1R) (Homo sapiens, UniProt P25103); experiment: Substance P antagonism assay: 125I-substance P binding to human NK1R expressed in COS or CHO cells; conditions: 125I-substance P displacement, 4° C. or room temperature, 1 hour
T1 construct: expressed in transfected cells
Procedure: To express the cloned human neurokinin-1-receptor (NK1R) transiently in COS, the cDNA for the human NK1R was cloned into the expression vector pCDM9 which was derived from pCDM8 (INVITROGEN) by inserting the ampicillin resistance gene (nucleotide 1973 to 2964 from BLUESCRIPT SK+ (trademark, STRATAGENE, La Jolla, Calif., USA)) into the Sac II site. Transfection of 20 ug of the plasmid DNA into 10 million COS cells was achieved by electroporation in 800 μof transfection buffer (135 mM NaCl, 1.2 mM CaCl2, 1.2 mM MgCl2 2.4 mM K2 HPO4, 0.6 mM KH2 PO4, 10 mM glucose, 10 mM N-2-hydroxyethyl-piperazine-N'-2-ethane sulphonic acid (HEPES) pH 7.4) at 260 V and 950 μusing the IBI GENEZAPPER (trademark IBI, New Haven, Conn., USA). The cells were incubated in 10% fetal calf serum, 2 mM glutamine, 100 U/ml penicillin-streptomycin, and 90% DMEM media (GIBCO, Grand Island, N.Y., USA) in 5% CO2 at 37° C. for three days before the binding assay.
To establish a stable cell line expressing cloned human NK1R, the cDNA was subcloned into the vector pRcCMV (INVITROGEN). Transfection of 20 ug of the plasmid DNA into CHO cells was achieved by electroporation in 800 μl of transfection buffer supplemented with 0.625 mg/ml Herring sperm DNA at 300 V and 950 μF using the IBI GENEZAPPER (IBI). The transfected cells were incubated in CHO media [10% fetal calf serum, 100 U/ml penicillin-streptomycin, 2 mM glutamine, 1/500 hypoxanthine-thymidine (ATCC), 90% IMDM media (JRH BIOSCIENCES, Lenexa, Kans., USA), 0.7 mg/ml G418 (GIBCO)] in 5% CO2 at 37° C. until colonies were visible. Each colony was separated and propagated. The cell clone with the highest number of human NK1R was selected for subsequent applications such as drug screening.
The binding assay of human NK1R expressed in either COS or CHO cells is based on the use of ^125 I-substance P (^125 I-SP, from DU PONT, Boston, Mass.) as a radioactively labeled ligand which competes with unlabeled substance P or any other ligand for binding to the human NK1R. Monolayer cell cultures of COS or CHO were dissociated by the non-enzymatic solution (SPECIALTY MEDIA, Lavellette, N.J.) and resuspended in appropriate volume of the binding buffer (50 mM Tris pH 7.5, 5 mM MnCl2, 150 mM NaCl, 0.04 mg/ml bacitracin, 0.004 mg/ml leupeptin, 0.2 mg/ml BSA, 0.01 mM phosphoramidon) such that 200 μl of the cell suspension would give rise to about 10,000 cpm of specific ^125 I-SP binding (approximately 50,000 to 200,000 cells). In the binding assay, 200 ul of cells were added to a tube containing 20 ul of 1.5 to 2.5 nM of ^125 I-SP and 20 μl of unlabeled substance P or any other test compound. The tubes were incubated at 4° C. or at room temperature for 1 hour with gentle shaking. The bound radioactivity was separated from unbound radioactivity by GF/C filter (BRANDEL, Gaithersburg, Md.) which was prewetted with 0.1% polyethylenimine. The filter was washed with 3 ml of wash buffer (50 mM Tris pH 7.5, 5 mM MnCl2, 150 mM NaCl) three times and its radioactivity was determined by gamma counter.

T1 sequence (P25103 whole entry): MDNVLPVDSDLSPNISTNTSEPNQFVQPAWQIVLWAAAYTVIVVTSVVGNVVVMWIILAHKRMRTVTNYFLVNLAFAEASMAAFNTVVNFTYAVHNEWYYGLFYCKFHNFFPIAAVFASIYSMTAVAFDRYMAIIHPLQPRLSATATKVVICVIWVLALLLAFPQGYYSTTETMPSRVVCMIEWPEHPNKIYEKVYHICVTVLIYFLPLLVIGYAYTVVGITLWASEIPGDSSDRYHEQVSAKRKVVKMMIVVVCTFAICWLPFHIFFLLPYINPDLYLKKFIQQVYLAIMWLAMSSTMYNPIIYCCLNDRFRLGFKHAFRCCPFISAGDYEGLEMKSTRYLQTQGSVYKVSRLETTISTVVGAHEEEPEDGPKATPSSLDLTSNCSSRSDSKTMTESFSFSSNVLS

SMILES | IC50 [nM]
COc1cccc(C(Cc2ccccc2)C2C(OCc3cc(C(F)(F)F)cc(C(F)(F)F)c3)C3CCN2CC3)c1 (single isomer, unassigned) [4: ISOMER A] | 10
FC(F)(F)c1cc(COC2C3CCN(CC3)C2C(Cc2ccccc2)c2ccccc2)cc(C(F)(F)F)c1 (single isomer, unassigned) [2: ISOMER A] | 4.5
FC(F)(F)c1cc(COC2C3CCN(CC3)C2C(c2ccccc2)C2CCCCC2)cc(C(F)(F)F)c1 (stereo not drawn) [Example 5, 3-(3,5-Bis(trifluoromethyl)phenyl)methyloxy-2-(α-cyclohexylbenzyl)-1-azabicyclo[2.2.2]octane oxalate hemihydrate] | 3
Cc1cc(C)cc(COC2C3CCN(CC3)C2C(Cc2ccccc2)c2ccccc2)c1 (single isomer, unassigned) [1: ISOMER A] | 2.4
Cc1cc(C)cc(COC2C3CCN(CC3)C2C(Cc2ccccc2)c2ccccc2)c1 (single isomer, unassigned) [1: ISOMER B] | 1.8
Cc1cc(C)cc(COC2C3CCN(CC3)C2C(Cc2ccccc2)c2ccccc2)c1 (single isomer, unassigned) [1: ISOMER C] | > 100
COc1cccc(C(Cc2ccccc2)C2C(OCc3cc(C(F)(F)F)cc(C(F)(F)F)c3)C3CCN2CC3)c1 (single isomer, unassigned) [4: ISOMER B] | 1.8
FC(F)(F)c1cc(COC2C3CCN(CC3)C2C(Cc2ccccc2)c2ccccc2)cc(C(F)(F)F)c1 (single isomer, unassigned) [2: ISOMER C] | > 100
FC(F)(F)c1cc(COC2C3CCN(CC3)C2C(Cc2ccccc2)c2ccccc2)cc(C(F)(F)F)c1 (single isomer, unassigned) [2: ISOMER B] | 6.3
COc1ccc(C(Cc2ccccc2)C2C(OCc3cc(C(F)(F)F)cc(C(F)(F)F)c3)C3CCN2CC3)cc1 (single isomer, unassigned) [3: ISOMER A] | 3

From patent publication US5288730A, “Azabicyclic compounds, pharmaceutical compositions containing them and their use in therapy” (Merck Sharp & Dohme Limited, priority 1991, dated 1994)
